PubChem BioAssay (NCI)
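Grown in 96-well plates, cells were treated for 48 hours with each compound at five concentrations. Insufficient inhibition: endpoint recorded as highest concentration tested. Definition used: TGI = concentration required for complete inhibition of growth.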

Key:
Experiment in all cases: NCI tumour cell line growth inhibition, 48 h
[1] = tested on: A498 renal
[2] = tested on: A549 NSCLC
[3] = tested on: CAKI-1 renal
[4] = tested on: CCRF-CEM leukemia
[5] = tested on: COLO 205 colon
[6] = tested on: DLD-1 colon
[7] = tested on: DMS 114 small cell lung
[8] = tested on: DMS 273 small cell lung
[9] = tested on: EKVX NSCLC
[10] = tested on: HCC-2998 colon
[11] = tested on: HCT-116 colon
[12] = tested on: HCT-15 colon
[13] = tested on: HL-60(TB) leukemia
[14] = tested on: HOP-18 NSCLC
[15] = tested on: HOP-62 NSCLC
[16] = tested on: HOP-92 NSCLC
[17] = tested on: HT29 colon
[18] = tested on: IGROV1 ovarian
[19] = tested on: K-562 leukemia
[20] = tested on: KM12 colon
[21] = tested on: KM20L2 colon
[22] = tested on: LOX IMVI melanoma
[23] = tested on: M19-MEL melanoma
[24] = tested on: MALME-3M melanoma
[25] = tested on: MCF7 breast
[26] = tested on: MOLT-4 leukemia
[27] = tested on: NCI-H226 lung
[28] = tested on: NCI-H23 lung
[29] = tested on: NCI-H460 lung
[30] = tested on: NCI-H522 lung
[31] = tested on: NCI/ADR-RES ovarian
[32] = tested on: OVCAR-3 ovarian
[33] = tested on: OVCAR-4 ovarian
[34] = tested on: OVCAR-5 ovarian
[35] = tested on: OVCAR-8 ovarian
[36] = tested on: P388 leukemia
[37] = tested on: P388/ADR leukemia
[38] = tested on: RPMI-8226 leukemia
[39] = tested on: RXF 393 renal
[40] = tested on: SF-268 CNS
[41] = tested on: SF-295 CNS
[42] = tested on: SF-539 CNS
[43] = tested on: SK-MEL-2 melanoma
[44] = tested on: SK-MEL-28 melanoma
[45] = tested on: SK-MEL-5 melanoma
[46] = tested on: SK-OV-3 ovarian
[47] = tested on: SN12C renal
[48] = tested on: SN12K1 renal
[49] = tested on: SNB-19 CNS
[50] = tested on: SNB-75 CNS
[51] = tested on: SNB-78 CNS
[52] = tested on: SW-620 colon
[53] = tested on: U251 CNS
[54] = tested on: UACC-257 melanoma
[55] = tested on: UACC-62 melanoma
[56] = tested on: UO-31 renal
[57] = tested on: XF 498 CNS

CCC(C(C)N1CC(=O)NC(=O)C1)N1CC(=O)NC(=O)C1 (configuration not stated)
TGI [1]: > 100 µM | TGI [2]: > 100 µM | TGI [3]: > 100 µM | TGI [4]: > 100 µM | TGI [5]: > 27.9 µM | TGI [6]: > 100 µM | TGI [7]: > 95 µM | TGI [8]: > 100 µM | TGI [9]: > 30 µM | TGI [10]: > 100 µM | TGI [11]: > 100 µM | TGI [12]: > 100 µM | TGI [13]: > 100 µM | TGI [14]: > 100 µM | TGI [15]: > 100 µM | TGI [16]: > 100 µM | TGI [17]: > 100 µM | TGI [18]: > 100 µM | TGI [19]: > 100 µM | TGI [20]: > 100 µM | TGI [21]: > 100 µM | TGI [22]: > 100 µM | TGI [23]: > 100 µM | TGI [24]: > 100 µM | TGI [25]: > 100 µM | TGI [26]: > 100 µM | TGI [27]: > 100 µM | TGI [28]: > 100 µM | TGI [29]: > 100 µM | TGI [30]: > 63.5 µM | TGI [31]: > 100 µM | TGI [32]: > 100 µM | TGI [33]: > 100 µM | TGI [34]: > 100 µM | TGI [35]: > 100 µM | TGI [36]: > 75.9 µM | TGI [37]: > 100 µM | TGI [38]: > 100 µM | TGI [39]: > 100 µM | TGI [40]: > 100 µM | TGI [41]: > 100 µM | TGI [42]: > 100 µM | TGI [43]: > 100 µM | TGI [44]: > 100 µM | TGI [45]: > 100 µM | TGI [46]: > 100 µM | TGI [47]: > 100 µM | TGI [48]: > 100 µM | TGI [49]: > 100 µM | TGI [50]: > 100 µM | TGI [51]: > 100 µM | TGI [52]: > 100 µM | TGI [53]: > 100 µM | TGI [54]: > 100 µM | TGI [55]: > 100 µM | TGI [56]: > 100 µM | TGI [57]: > 100 µM
